Organism: Rattus norvegicus
Experiment: DrugMatrix - Regimen: Daily Repeat
Format: toxicity, organism-based, Sprague-Dawley
Set-up: regimen Daily Repeat, gender Male, age 6-8 weeks
Settings: in vivo, po, route oral GAVAGE, vehicle .5 % CMC; for ABSOLUTE BASOPHIL / ABSOLUTE EOSINOPHIL / ABSOLUTE LYMPHOCYTE / ABSOLUTE MONOCYTE / ABSOLUTE SEGMENTED NEUTROPHIL / BASOPHIL / EOSINOPHIL / ERYTHROCYTE COUNT / HEMATOCRIT / HEMOGLOBIN / LEUKOCYTE COUNT / LYMPHOCYTE / MEAN CORPUSCULAR HEMOGLOBIN / MEAN CORPUSCULAR HEMOGLOBIN CONCENTRATION / MEAN CORPUSCULAR VOLUME / MONOCYTE / NEUTROPHIL / NUCLEATED RED BLOOD CELLS / PLATELET COUNT: tissue Blood; for ALANINE AMINOTRANSFERASE / ALBUMIN / ALKALINE PHOSPHATASE / ASPARTATE AMINOTRANSFERASE / BLOOD UREA NITROGEN / CARBON DIOXIDE / CHLORIDE / CHOLESTEROL / CREATINE PHOSPHOKINASE / CREATININE / GLUCOSE / LACTATE DEHYDROGENASE / LIPASE / PHOSPHORUS / POTASSIUM / SODIUM / TOTAL BILIRUBIN / TOTAL PROTEIN / URIC ACID: tissue Plasma
[1] = 0 mg/kg, 72 h, dose level Control, time 3 day
[2] = 0 mg/kg, 120 h, dose level Control, time 5 day
[3] = 0.1 mg/kg, 72 h, dose level Low, time 3 day

CCCN1C[C@H](CSC)C[C@@H]2c3cccc4[nH]cc(c34)C[C@H]21 [PERGOLIDE]
ABSOLUTE BASOPHIL [1]: 0 CELLS/uL
ABSOLUTE EOSINOPHIL [1]: 284.5 CELLS/uL
ABSOLUTE LYMPHOCYTE [1]: 11670.5 CELLS/uL
ABSOLUTE MONOCYTE [1]: 420.83 CELLS/uL
ABSOLUTE SEGMENTED NEUTROPHIL [1]: 1024.17 CELLS/uL
BASOPHIL [1]: 0%
EOSINOPHIL [1]: 1.67%
ERYTHROCYTE COUNT [1]: 5.38 x10E6/uL
HEMATOCRIT [1]: 34.05%
HEMOGLOBIN [1]: 12.75 G/DL
LEUKOCYTE COUNT [1]: 13.4 x10E3/uL
LYMPHOCYTE [1]: 88.33%
MEAN CORPUSCULAR HEMOGLOBIN [1]: 23.73 pg
MEAN CORPUSCULAR HEMOGLOBIN CONCENTRATION [1]: 37.43 G/DL
MEAN CORPUSCULAR VOLUME [1]: 63.4 fL
MONOCYTE [1]: 2.83%
NEUTROPHIL [1]: 7.17%
NUCLEATED RED BLOOD CELLS [1]: 0 /100WBC
PLATELET COUNT [1]: 1184.67 x10E3/uL
ALANINE AMINOTRANSFERASE [1]: 45.33 u/L
ALBUMIN [1]: 4.3 G/DL
ALKALINE PHOSPHATASE [1]: 388.83 u/L
ASPARTATE AMINOTRANSFERASE [1]: 84.83 u/L
BLOOD UREA NITROGEN [1]: 15.5 mg/dL
CARBON DIOXIDE [1]: 27 mmol/L
CHLORIDE [1]: 101.8 MEQ/L
CHOLESTEROL [1]: 76.67 mg/dL
CREATINE PHOSPHOKINASE [1]: 301 u/L
CREATININE [1]: 0.21 mg/dL
GLUCOSE [1]: 168.83 mg/dL
LACTATE DEHYDROGENASE [1]: 294.83 u/L
LIPASE [1]: 9.8 u/L
PHOSPHORUS [1]: 13.25 mg/dL
POTASSIUM [1]: 6.41 MEQ/L
SODIUM [1]: 143.72 MEQ/L
TOTAL BILIRUBIN [1]: 0.22 mg/dL
TOTAL PROTEIN [1]: 5.98 G/DL
URIC ACID [1]: 1.5 mg/dL
ABSOLUTE BASOPHIL [2]: 0 CELLS/uL
ABSOLUTE EOSINOPHIL [2]: 190.67 CELLS/uL
ABSOLUTE LYMPHOCYTE [2]: 12549.5 CELLS/uL
ABSOLUTE MONOCYTE [2]: 276 CELLS/uL
ABSOLUTE SEGMENTED NEUTROPHIL [2]: 1067.17 CELLS/uL
BASOPHIL [2]: 0%
EOSINOPHIL [2]: 1.33%
ERYTHROCYTE COUNT [2]: 5.66 x10E6/uL
HEMATOCRIT [2]: 35.92%
HEMOGLOBIN [2]: 13.65 G/DL
LEUKOCYTE COUNT [2]: 14.08 x10E3/uL
LYMPHOCYTE [2]: 89%
MEAN CORPUSCULAR HEMOGLOBIN [2]: 24.12 pg
MEAN CORPUSCULAR HEMOGLOBIN CONCENTRATION [2]: 38.03 G/DL
MEAN CORPUSCULAR VOLUME [2]: 63.47 fL
MONOCYTE [2]: 2%
NEUTROPHIL [2]: 7.67%
NUCLEATED RED BLOOD CELLS [2]: 0.17 /100WBC
PLATELET COUNT [2]: 1251.67 x10E3/uL
ALANINE AMINOTRANSFERASE [2]: 43.33 u/L
ALBUMIN [2]: 4.22 G/DL
ALKALINE PHOSPHATASE [2]: 365.67 u/L
ASPARTATE AMINOTRANSFERASE [2]: 83.67 u/L
BLOOD UREA NITROGEN [2]: 18.17 mg/dL
CARBON DIOXIDE [2]: 28.67 mmol/L
CHLORIDE [2]: 103.5 MEQ/L
CHOLESTEROL [2]: 71.5 mg/dL
CREATINE PHOSPHOKINASE [2]: 284.5 u/L
CREATININE [2]: 0.21 mg/dL
GLUCOSE [2]: 161.67 mg/dL
LACTATE DEHYDROGENASE [2]: 259.67 u/L
LIPASE [2]: 9.5 u/L
PHOSPHORUS [2]: 12.45 mg/dL
POTASSIUM [2]: 6.49 MEQ/L
SODIUM [2]: 144.25 MEQ/L
TOTAL BILIRUBIN [2]: 0.2 mg/dL
TOTAL PROTEIN [2]: 6.1 G/DL
URIC ACID [2]: 1.73 mg/dL
ABSOLUTE BASOPHIL [3]: 0 CELLS/uL
ABSOLUTE EOSINOPHIL [3]: 0 CELLS/uL
ABSOLUTE LYMPHOCYTE [3]: 6272.67 CELLS/uL
ABSOLUTE MONOCYTE [3]: 109.67 CELLS/uL
ABSOLUTE SEGMENTED NEUTROPHIL [3]: 384.33 CELLS/uL
BASOPHIL [3]: 0%
EOSINOPHIL [3]: 0%
ERYTHROCYTE COUNT [3]: 5.33 x10E6/uL
HEMATOCRIT [3]: 33.93%
HEMOGLOBIN [3]: 12.33 G/DL
LEUKOCYTE COUNT [3]: 6.77 x10E3/uL
LYMPHOCYTE [3]: 92.67%
MEAN CORPUSCULAR HEMOGLOBIN [3]: 23.1 pg
MEAN CORPUSCULAR HEMOGLOBIN CONCENTRATION [3]: 36.37 G/DL
MEAN CORPUSCULAR VOLUME [3]: 63.57 fL
MONOCYTE [3]: 1.67%
NEUTROPHIL [3]: 5.67%
NUCLEATED RED BLOOD CELLS [3]: 0 /100WBC
PLATELET COUNT [3]: 1337.33 x10E3/uL
ALANINE AMINOTRANSFERASE [3]: 45.67 u/L
ALBUMIN [3]: 4.4 G/DL
ALKALINE PHOSPHATASE [3]: 479.67 u/L
ASPARTATE AMINOTRANSFERASE [3]: 81.67 u/L
BLOOD UREA NITROGEN [3]: 15.33 mg/dL
CARBON DIOXIDE [3]: 28.67 mmol/L
CHLORIDE [3]: 102 MEQ/L
CHOLESTEROL [3]: 85 mg/dL
CREATINE PHOSPHOKINASE [3]: 214.67 u/L
CREATININE [3]: 0.21 mg/dL
GLUCOSE [3]: 139 mg/dL
LACTATE DEHYDROGENASE [3]: 153.33 u/L
LIPASE [3]: 9 u/L
PHOSPHORUS [3]: 12.77 mg/dL
POTASSIUM [3]: 6.37 MEQ/L
SODIUM [3]: 146.5 MEQ/L
TOTAL BILIRUBIN [3]: 0.23 mg/dL
TOTAL PROTEIN [3]: 6.23 G/DL
URIC ACID [3]: 1.53 mg/dL
